Results reported in the NIST ThermoML archive (doi:10.1016/j.tca.2011.12.021).

Assays:
[1] = wn = mass fraction of the nth substance listed; conditions: 101 kPa, Crystal, Hot wire method
[2] = 101.3 kPa, Crystal, Hot wire method

CC(C)(CO)CO [2,2-dimethyl-1,3-propanediol] + CC1(C)[C@@H]2CC[C@@]1(C)C(=O)C2
[1]
Conditions	thermal conductivity [W/m/K]
298 K, w2 = 0.7	0.35
303 K, w2 = 0.03	0.38
303 K, w2 = 0.3	0.37
303 K, w2 = 0.7	0.34
303 K, w2 = 0.96	0.3
308 K, w2 = 0.3	0.36
308 K, w2 = 0.7	0.34
313 K, w2 = 0.03	0.37
313 K, w2 = 0.3	0.35
313 K, w2 = 0.7	0.33
313 K, w2 = 0.96	0.3
315 K, w2 = 0.7	0.33
317 K, w2 = 0.7	0.33
318 K, w2 = 0.3	0.34
319 K, w2 = 0.7	0.32
321 K, w2 = 0.7	0.32
323 K, w2 = 0	0.4
323 K, w2 = 0.03	0.36
323 K, w2 = 0.3	0.33
323 K, w2 = 0.7	0.32
323 K, w2 = 0.96	0.3
325 K, w2 = 0.7	0.31
328 K, w2 = 0.3	0.32
328 K, w2 = 0.7	0.31
333 K, w2 = 0	0.38
333 K, w2 = 0.03	0.35
333 K, w2 = 0.3	0.31
333 K, w2 = 0.7	0.31
333 K, w2 = 0.96	0.29
338 K, w2 = 0.7	0.31
343 K, w2 = 0	0.36
343 K, w2 = 0.03	0.34
343 K, w2 = 0.7	0.31
343 K, w2 = 0.96	0.29
348 K, w2 = 0.7	0.3
353 K, w2 = 0	0.33
353 K, w2 = 0.03	0.32
353 K, w2 = 0.7	0.3
353 K, w2 = 0.96	0.29
358 K, w2 = 0.7	0.29
363 K, w2 = 0	0.32
363 K, w2 = 0.7	0.28
363 K, w2 = 0.96	0.28
373 K, w2 = 0	0.29
373 K, w2 = 0.96	0.28
383 K, w2 = 0	0.3
383 K, w2 = 0.96	0.28
393 K, w2 = 0	0.31
393 K, w2 = 0.96	0.27
403 K, w2 = 0.96	0.27
413 K, w2 = 0.96	0.26
423 K, w2 = 0.96	0.26
433 K, w2 = 0.96	0.25

CC(C)(CO)CO [2,2-dimethyl-1,3-propanediol]
[2]
Conditions	thermal conductivity [W/m/K]
323 K	0.4
333 K	0.38
343 K	0.36
353 K	0.33
363 K	0.32
373 K	0.29
383 K	0.3
393 K	0.31
